Read-outs that look alike come from different tables or passages of the source. Each block holds one molecule with its values, some of them ahead of it.
Tests used:
[1] = in acetonitrile, stirred for 30 minutes
Protocol: In the present invention, the term “solvent mediated transformation” means transformation of a crystal into another crystal form in the presence of a solvent. For example, it means that at a predetermined temperature, the crystal of Compound B is transformed into the type I crystal of Compound A in a solvent.
The crystal of Compound B was added to acetonitrile in an amount of not less than the supersaturation concentration at a predetermined temperature (in a state where not all the added crystals are dissolved and some crystals are present), stirred for 30 minutes, and then the crystal was filtered and measured with a powder X-ray diffractometer.

[2] = acetonitrile, in terms of the desolvate
Source text: In the present invention, the term “supersaturation concentration: Cx (g/100 g)” means the degree of supersaturation state and it is represented by the following formula. Cx=C−Cs
Where, C (g/100 g) indicates the mass (in terms of the desolvate) of Compound B dissolved in 100 g of a solvent.
Cs (g/100 g) indicates the saturation solubility (in terms of the desolvate) of Compound B dissolved in 100 g of a solvent under the temperature at the time of occurrence of spontaneous nucleation or addition of seed crystal.
A predetermined amount of Compound A was dissolved in a predetermined amount of acetonitrile, crystallization was carried out at various supersaturation concentrations, and the obtained crystals were analyzed with a powder X-ray diffractometer.

[3] = Stability of Compound A in a solvent by high-performance liquid chromatography; format: physicochemical; design: key to Chemical stability (*2): ◯: the one that did not have a peak other than that of Compound A (there is no degradation product); X: the one that had a peak other than that of Compound A (there is a degradation product); details: 50° C. for 1000 minutes, HPLC; for Chemical stability (*2): 2-fold volume
Protocol: (2) In order to investigate the stability of Compound A in a solvent, a 2-fold volume (the volume of a solvent (ml)/the weight of a dissolved substance (g)) of a solvent was added to Compound A, the mixture was maintained at 50° C. for 1000 minutes, and then the stability of the compound was investigated by high-performance liquid chromatography.
(§1) The results of the (1) described above are shown in the column of *1 of Table 2 and the results of the (2) described above are shown in the column of *2 of Table 2.

[4] = Investigation on solvent for crystallization: whether Compound A is dissolved in a solvent; format: physicochemical; details: organic solvent or mixture, thermodynamic from solid, 3 ml solvent to 50 mg
Protocol: (1) By adding 3 ml of a solvent to 50 mg of Compound A, it was investigated whether Compound A is dissolved or not.
as §1

Crystal form ([1]; 25 ° C.): Not changed
Crystal form ([1]; 40 ° C.): Not changed
Crystal form ([1]; 55 ° C.): Not changed
Crystal form ([1]; 67 ° C.): Not changed
Solubility at the time of occurrence of spontaneous nucleation or addition of seed crystals (Cs) ([2]; 0 ° C.): 0.07 g/100 g
Solubility at the time of occurrence of spontaneous nucleation or addition of seed crystals (Cs) ([2]; 14.3 ° C.): 0.16 g/100 g
Solubility at the time of occurrence of spontaneous nucleation or addition of seed crystals (Cs) ([2]; 17 ° C.): 0.19 g/100 g
Solubility at the time of occurrence of spontaneous nucleation or addition of seed crystals (Cs) ([2]; 25 ° C.): 0.29 g/100 g
Solubility at the time of occurrence of spontaneous nucleation or addition of seed crystals (Cs) ([2]; 27 ° C.): 0.32 g/100 g
Solubility at the time of occurrence of spontaneous nucleation or addition of seed crystals (Cs) ([2]; 30 ° C.): 0.38 g/100 g
Solubility at the time of occurrence of spontaneous nucleation or addition of seed crystals (Cs) ([2]; 45 ° C.): 0.79 g/100 g
Solubility at the time of occurrence of spontaneous nucleation or addition of seed crystals (Cs) ([2]; 50 ° C.): 1.00 g/100 g
Solubility at the time of occurrence of spontaneous nucleation or addition of seed crystals (Cs) ([2]; 55 ° C.): 1.25 g/100 g
Solubility at the time of occurrence of spontaneous nucleation or addition of seed crystals (Cs) ([2]; 65 ° C.): 1.92 g/100 g
Solubility at the time of occurrence of spontaneous nucleation or addition of seed crystals (Cs) ([2]; 70 ° C.): 2.36 g/100 g
Compound: CC#N.Cc1oc(=O)oc1CN1CCN(c2cc3c(cc2F)c(=O)c(C(=O)O)c2n3C(C)S2)CC1 (stereo not drawn) [Compound B, 6-fluoro-1-methyl-7-[4-(5-methyl-2-oxo-1,3-dioxolen-4-yl)-methyl-1-piperazinyl]-4-oxo-4H-[1,3]thiazeto[3,2-a]quinoline-3-carboxylic acid acetonitrile solvate]

Chemical stability (*2) ([3]; solvent 2-ethoxy ethanol): X
Chemical stability (*2) ([3]; solvent acetic acid): X
Chemical stability (*2) ([3]; solvent acetic anhydride): X
Chemical stability (*2) ([3]; solvent acetonitrile): ◯
Chemical stability (*2) ([3]; solvent aniline): X
Chemical stability (*2) ([3]; solvent formic acid): X
Chemical stability (*2) ([3]; solvent methanol): X
Chemical stability (*2) ([3]; solvent phenol): X
solubility ([4]; solvent 1-butanol): ≤ 16.7 mg/mL
solubility ([4]; solvent 2-ethoxy ethanol, read-out: Solubility (*1)): ≥ 16.7 mg/mL
solubility ([4]; solvent 2-propanol, read-out: Solubility (*1)): ≤ 16.7 mg/mL
solubility ([4]; solvent N,N-dimethylformamide, read-out: Solubility (*1)): > 16.7 mg/mL
solubility ([4]; solvent acetic acid, read-out: Solubility (*1)): > 16.7 mg/mL
solubility ([4]; solvent acetic anhydride, read-out: Solubility (*1)): ≥ 16.7 mg/mL
solubility ([4]; solvent acetone, read-out: Solubility (*1)): ≤ 16.7 mg/mL
solubility ([4]; solvent acetonitrile, read-out: Solubility (*1)): ≥ 16.7 mg/mL
solubility ([4]; solvent aniline, read-out: Solubility (*1)): > 16.7 mg/mL
solubility ([4]; solvent benzene, read-out: Solubility (*1)): ≤ 16.7 mg/mL
solubility ([4]; solvent carbon tetrachloride, read-out: Solubility (*1)): ≤ 16.7 mg/mL
solubility ([4]; solvent chloroacetonitrile, read-out: Solubility (*1)): > 16.7 mg/mL
solubility ([4]; solvent chloroform, read-out: Solubility (*1)): ≤ 16.7 mg/mL
solubility ([4]; solvent cresol, read-out: Solubility (*1)): ≤ 16.7 mg/mL
solubility ([4]; solvent dibutyl ether, read-out: Solubility (*1)): ≤ 16.7 mg/mL
solubility ([4]; solvent diisopropyl ether, read-out: Solubility (*1)): ≤ 16.7 mg/mL
solubility ([4]; solvent dioxane, read-out: Solubility (*1)): ≤ 16.7 mg/mL
solubility ([4]; solvent diphenyl ether, read-out: Solubility (*1)): ≤ 16.7 mg/mL
solubility ([4]; solvent ethanol, read-out: Solubility (*1)): ≤ 16.7 mg/mL
solubility ([4]; solvent ethyl acetate, read-out: Solubility (*1)): ≤ 16.7 mg/mL
solubility ([4]; solvent formamide, read-out: Solubility (*1)): ≤ 16.7 mg/mL
solubility ([4]; solvent formic acid, read-out: Solubility (*1)): > 16.7 mg/mL
solubility ([4]; solvent glycerin, read-out: Solubility (*1)): ≤ 16.7 mg/mL
solubility ([4]; solvent heptane, read-out: Solubility (*1)): ≤ 16.7 mg/mL
solubility ([4]; solvent hexane, read-out: Solubility (*1)): ≤ 16.7 mg/mL
solubility ([4]; solvent isobutyl alcohol, read-out: Solubility (*1)): ≤ 16.7 mg/mL
solubility ([4]; solvent isopropyl acetate, read-out: Solubility (*1)): ≤ 16.7 mg/mL
solubility ([4]; solvent ligroin, read-out: Solubility (*1)): ≤ 16.7 mg/mL
solubility ([4]; solvent methanol, read-out: Solubility (*1)): ≤ 16.7 mg/mL
solubility ([4]; solvent methyl acetate, read-out: Solubility (*1)): ≤ 16.7 mg/mL
solubility ([4]; solvent methyl ethyl ketone, read-out: Solubility (*1)): ≤ 16.7 mg/mL
solubility ([4]; solvent methylcyclohexane, read-out: Solubility (*1)): ≤ 16.7 mg/mL
solubility ([4]; solvent nitromethane, read-out: Solubility (*1)): > 16.7 mg/mL
solubility ([4]; solvent p-cymene, read-out: Solubility (*1)): ≤ 16.7 mg/mL
solubility ([4]; solvent petroleum ether, read-out: Solubility (*1)): ≤ 16.7 mg/mL
solubility ([4]; solvent phenol, read-out: Solubility (*1)): ≥ 16.7 mg/mL
solubility ([4]; solvent pyridine, read-out: Solubility (*1)): > 16.7 mg/mL
solubility ([4]; solvent tetrachloroethylene, read-out: Solubility (*1)): ≤ 16.7 mg/mL
solubility ([4]; solvent tetrahydrofuran, read-out: Solubility (*1)): ≤ 16.7 mg/mL
solubility ([4]; solvent toluene, read-out: Solubility (*1)): ≤ 16.7 mg/mL
solubility ([4]; solvent trichloroethylene, read-out: Solubility (*1)): ≤ 16.7 mg/mL
solubility ([4]; solvent xylene, read-out: Solubility (*1)): ≤ 16.7 mg/mL
Compound: Cc1oc(=O)oc1CN1CCN(c2cc3c(cc2F)c(=O)c(C(=O)O)c2n3C(C)S2)CC1 (stereo not drawn) [Compound A, 6-fluoro-1-methyl-7-[4-(5-methyl-2-oxo-1,3-dioxolen-4-yl)-methyl-1-piperazinyl]-4-oxo-4H-[1,3]thiazeto[3,2-a]quinoline-3-carboxylic acid]
degradation product in solvent ([3]; formic acid, acetic acid and aniline): a degradation product of Compound A was observed
